In general, MIC refers to the smallest concentration in the dilution series that meets the test's criterion for growth inhibition.

In brackets after ≈: the same amount, converted by molar mass.

For assay [1], the system named is Acinetobacter calcoaceticus subsp. anitratus. As to the kind of experiment: In vitro antibacterial activity of compound was measured against gram negative Acinetobacter anitratus 150001. The assay is classed as functional.
The test system of a further assay is Alcaligenes faecalis. As to the kind of experiment: In vitro antibacterial activity of compound was measured against gram negative Alcaligenes faecalis 140001. The assay is classed as functional.
For a further assay, the system named is Bacteroides fragilis. As to the kind of experiment: In vitro antibacterial activity of compound was measured against gram negative Bacteroides fragilis ATCC 25285. Format: functional.
The next assay concerns Bacillus subtilis. As to the kind of experiment: In vitro antibacterial activity of compound was measured against gram positive Bacillus subtilis ATCC 6633. The assay is classed as functional.
A further assay has as its system Clostridium perfringens. As to the kind of experiment: In vitro antibacterial activity of compound was measured against gram positive Clostridium perfringens 70500. The assay is classed as functional.
Assay [2] deals with Escherichia coli. As to the kind of experiment: In vitro antibacterial activity of compound was measured against gram negative Escherichia coli 6R. Format: functional.
Assay [3] has as its system Escherichia coli. As to the kind of experiment: In vitro antibacterial activity of compound was measured against gram negative Escherichia coli K12. Format: functional.
The next assay relates to Klebsiella pneumoniae. As to the kind of experiment: In vitro antibacterial activity of compound was measured against gram negative Klebsiella pneumoniae ATCC 10031. Format: functional.
Assay [4] has as its system Mycobacterium tuberculosis. As to the kind of experiment: In vitro antibacterial activity of compound was measured against gram positive Mycobacterium tuberculosis H37Rv (human). The assay is classed as functional.
The subject of another assay is Proteus vulgaris. As to the kind of experiment: In vitro antibacterial activity of compound was measured against gram negative Proteus vulgaris XL. Format: functional.
A further assay deals with Proteus inconstans. As to the kind of experiment: In vitro antibacterial activity of compound was measured against gram negative Proteus inconstans NCTC 8055. The note with it: Providencia alcalifaciens. Format: functional.
The subject of another assay is Salmonella typhimurium. As to the kind of experiment: In vitro antibacterial activity of compound was measured against gram negative Salmonella Typhimurium 51. The assay is classed as functional, Salmonella enterica subsp. enterica serovar Typhimurium. The note with it: Salmonella enterica.
The next assay concerns Serratia marcescens. As to the kind of experiment: In vitro antibacterial activity of compound was measured against gram negative Serratia marcescens. The assay is classed as functional.
The subject of the next assay is Shigella sonnei. As to the kind of experiment: In vitro antibacterial activity of compound was measured against gram negative Shigella sonnei. Format: functional.
Another assay relates to Streptococcus pneumoniae. As to the kind of experiment: In vitro antibacterial activity of compound was measured against gram positive Streptococcus pneumoniae. Format: functional.
The subject of assay [5] is Staphylococcus aureus. As to the kind of experiment: In vitro antibacterial activity of compound was measured against gram positive Staphylococcus aureus 1110 pen.rez. The assay is classed as functional.
Assay [6] has as its system Staphylococcus aureus. As to the kind of experiment: In vitro antibacterial activity of compound was measured against gram positive Staphylococcus aureus SMITH. Format: functional.
Assay [7] has as its system Streptococcus pyogenes. As to the kind of experiment: In vitro antibacterial activity of compound was measured against gram positive Streptococcus pyogenes A 115 ROBB. The assay is classed as functional.
Assay [8] has as its system Streptococcus pyogenes. As to the kind of experiment: In vitro antibacterial activity of compound was measured against gram positive Streptococcus pyogenes A 118. Format: functional.
The subject of a further assay is Enterococcus faecalis. As to the kind of experiment: In vitro antibacterial activity of compound was measured against gram positive Streptococcus faecalis. Format: functional.
A further assay deals with Pseudomonas aeruginosa. As to the kind of experiment: In vitro antibacterial activity of compound was measured against gram negative Pseudomonas pyocyanea NCTC 10490. Format: functional, pseudomona pyocyanea.
Assay [9] concerns Mycobacterium tuberculosis. As to the kind of experiment: In vitro antibacterial activity of compound was measured against gram positive Mycobacterium tuberculosis Ravenel(bovin). The assay is classed as functional.
Assay [10] relates to Bordetella bronchiseptica. As to the kind of experiment: In vitro antibacterial activity of compound was measured against gram negative Bordetella bronchiseptica ATCC 4617. Format: functional.

On to `CN1CCN(c2c(F)cc3c(=O)c(C(=O)O)cn(N4CC4c4cccc(C(F)(F)F)c4)c3c2F)CC1` (stereo not drawn), for which the MIC in assay [1] is 100 mg/L (≈ 197 µM); against Alcaligenes faecalis it was 100 mg/L (≈ 197 µM); with Bacteroides fragilis, 50 mg/L (≈ 98.3 µM); against Bacillus subtilis, 50 mg/L (≈ 98.3 µM); with Clostridium perfringens it was 100 mg/L (≈ 197 µM); in the assay on Escherichia coli [2] it was 100 mg/L (≈ 197 µM). Further, the MIC is 50 mg/L (≈ 98.3 µM) against Escherichia coli [3]; 12.5 mg/L (≈ 24.6 µM) in the assay with Klebsiella pneumoniae; 100 mg/L (≈ 197 µM) in assay [4]; 100 mg/L (≈ 197 µM) against Proteus vulgaris; 100 mg/L (≈ 197 µM) with Proteus inconstans; 50 mg/L (≈ 98.3 µM) against Salmonella typhimurium. Also, the MIC was 100 mg/L (≈ 197 µM) in the assay on Serratia marcescens; 12.5 mg/L (≈ 24.6 µM) in the assay with Shigella sonnei; 25 mg/L (≈ 49.2 µM) against Streptococcus pneumoniae; 50 mg/L (≈ 98.3 µM) against Staphylococcus aureus [5]; 25 mg/L (≈ 49.2 µM) against Staphylococcus aureus [6]; 100 mg/L (≈ 197 µM) in the assay with Streptococcus pyogenes [7]. Also, the MIC in the assay on Streptococcus pyogenes [8] worked out at 100 mg/L (≈ 197 µM); with Enterococcus faecalis, 50 mg/L (≈ 98.3 µM); against Pseudomonas aeruginosa it was 100 mg/L (≈ 197 µM); in [9] it was 50 mg/L (≈ 98.3 µM); in [10], 100 mg/L (≈ 197 µM).

Values taken from ChEMBL document CHEMBL1129105, “Synthesis and biological evaluation of N-(1-aziridino)-6-fluoro-quinolone-3-carboxylic acids” (1996).
